# What was measured:
# [1] = target: T1, Aldurazyme (laronidase) IDUA activity in bone joint cartilage (Homo sapiens, UniProt P35475); experiment: IDUA assay in bone joint cartilage after i.v. Aldurazyme with or without compound; assay type: in vivo, C57BL/6 male mice; conditions: mice, compound i.v. + Aldurazyme 1.2 mg/kg i.v.
# T1 construct: purchased Aldurazyme; host or cells: administered i.v. to C57BL/6 male mice
# T1 sequence (P35475 26-653 limits assumed): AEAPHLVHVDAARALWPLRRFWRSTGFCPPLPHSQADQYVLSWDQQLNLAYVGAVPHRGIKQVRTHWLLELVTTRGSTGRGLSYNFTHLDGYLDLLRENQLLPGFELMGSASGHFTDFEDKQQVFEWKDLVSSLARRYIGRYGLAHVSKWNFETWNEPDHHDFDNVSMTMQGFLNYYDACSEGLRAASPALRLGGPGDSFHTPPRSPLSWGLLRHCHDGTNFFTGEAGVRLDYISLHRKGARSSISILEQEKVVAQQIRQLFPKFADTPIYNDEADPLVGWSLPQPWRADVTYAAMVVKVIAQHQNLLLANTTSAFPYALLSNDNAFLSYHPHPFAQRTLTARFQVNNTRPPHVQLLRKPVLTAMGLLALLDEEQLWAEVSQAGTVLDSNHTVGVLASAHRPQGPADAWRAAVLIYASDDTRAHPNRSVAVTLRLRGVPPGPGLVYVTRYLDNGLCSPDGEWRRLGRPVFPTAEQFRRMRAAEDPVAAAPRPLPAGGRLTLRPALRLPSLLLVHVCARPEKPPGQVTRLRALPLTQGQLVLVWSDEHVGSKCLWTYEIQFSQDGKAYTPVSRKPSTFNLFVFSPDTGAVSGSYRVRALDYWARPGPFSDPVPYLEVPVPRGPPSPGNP
# Experimental: (§1) Evaluation of IDUA activity in mouse bone joint cartilage samples obtained from BIO-PCY-19-025 study, where C57BL/6 male mice were administered with 1.2 mg/kg Aldurazyme (i.v. bolus administration) in the presence and absence of Compound A.
# (§2) Groups Details: • G1: Vehicle 2 +Aldurazyme (1.2 mg/kg,i.v.,) QD×1(n=6) [vehicle 2:NMP (5%) + Solutol HS-15 (5%) + Normal saline (45%) + PEG-400 (45%)]; • G2: Compound A (5 mg/kg, i.v.) + Aldurazyme (1.2 mg/kg, i.v.) QD x 1 (n=6); • G3: Compound A (10 mg/kg, i.v.) + Aldurazyme (1.2 mg/kg, i.v.) QD x 1 (n=6); • G4: Compound A (20 mg/kg, i.v.) + Aldurazyme (1.2 mg/kg, i.v.) QD x 1 (n=6); and • G5: Naïve Control (n=6).
# Bone joint cartilage samples from mice were collected at indicated time points. Tissues were homogenized in RIPA buffer, protein was extracted was diluted in water. Total protein was estimated using Bradford reagent. 25 µl of tissue homogenate and plasma samples were added to 25 µl of 0.18 mM of 4 MUI substrate and incubated at 37° C. for 30 min. Reaction was terminated using 200 µl of stop solution (0.3 M Glycine and 0.2 M sodium carbonate, pH 10.4). Plate was read at excitation 355 nm and emission 460 nm. […]
# (§3) IDUA activity was assessed from 4-MU standard curve. […] Final IDUA enzyme activity was expressed as nmols/mg of protein/hr. Data was analyzed using GraphPad prism software with one way ANOVA followed by Dunnett’s comparison test. […]
# [2] = target: T2, Recombinant human α-L-iduronidase protein IDUA (Homo sapiens, UniProt P35475); experiment: IDUA inhibition assay; assay type: biochemical; conditions: 4-MU alpha-L-iduronide substrate, pH 3.5, even at high concentrations
# T2 construct: Ala26-Pro653 with a C-terminal 10_His tag; 10xHis (C); host or cells: HEK293f
# T2 sequence (P35475 26-653): T1 sequence (P35475 26-653 limits assumed)
# Experimental: The ability of Compound of the Disclosure to inhibit IDUA was assessed by the assay described below.
# Recombinant human α-L-iduronidase protein IDUA PR_06_WT_X (obtained in the Institute of Biotechnology and Biomedicine in the UAB, Bellaterra, Spain) was prepared at the desired concentration in PBS:
# Recombinant Human IDUA. HEK293f. Ala26-Pro653 with a C-terminal 10_His tag. Protein buffer: 40 mM sodium acetate, 400 mM NaCl and 20% glycerol, pH=5. Produced by PPP IBB UAB.
# The activity assay (3 replicates of each sample) included the following procedures:
# In dark 96-well plates compatible with fluorometer: • 1) 25 µL of Recombinant protein or PBS (in blank samples); • 2) 1 µL CO (50X concentrate, made in an intermediate plate) or DMSO for the untreated samples; • 3) 25 µL of 200 µM substrate solution (from a stock solution of 20 mM of substrate in DMSO), 4-Methylumbelliferyl alpha-L-iduronide (Glycosynth, 44076) in 0,4 M sodium formate, pH 3,5, and 0,2% triton; • 4) Mix (shaker); • 5) 37° C. 60 min; • 6) Stop the reaction by adding 200 µL of 0,5 M Glycine / 0,3 M NaOH, pH=10; and • 7) Read Fluorescence at Ex/Em: 340/460 nm.
# [3] = target: T3, Aldurazyme (laronidase) IDUA activity in bone marrow (Homo sapiens, UniProt P35475); experiment: IDUA assay in bone marrow after i.v. Aldurazyme with or without compound; assay type: in vivo, C57BL/6 male mice; conditions: mice, compound i.v. + Aldurazyme 1.2 mg/kg i.v.
# T3 construct: purchased Aldurazyme; host or cells: administered i.v. to C57BL/6 male mice
# T3 sequence (P35475 26-653 limits assumed): T1 sequence (P35475 26-653 limits assumed)
# Experimental: as §1, §2
# Bone marrow samples from mice were collected at indicated time points. After repeated freeze thaw cycles for protein extraction, bone marrow samples were diluted in formate buffer (0.4 M, pH 3.5). Total protein was estimated using Bradford reagent. 25 µl of tissue homogenate and plasma samples were added to 25 µl of 0.18 mM of 4 MUI substrate and incubated at 37° C. for 30 min. […] Plate was read at excitation 355 nm and emission 460 nm. […]
# as §3
structure (smiles),measurement,setting,value
CCN(CC(=O)Nc1c(Cl)cccc1Cl)Cc1nc2ccsc2c(=O)[nH]1 [Compound A],IDUA enzymatic activity in bone joint cartilage,[1],increases IDUA enzymatic activity in a panel of tissues
same,inhibition of IDUA enzymatic activity,[2],does not inhibit human IDUA
same,IDUA enzymatic activity in bone marrow,[3],increases IDUA enzymatic activity in a panel of tissues
